# Results reported in US10723723B2, “Substituted bicycle heterocyclic derivatives useful as ROMK channel inhibitors” (BRISTOL-MYERS SQUIBB COMPANY, priority 2016, dated 2020).
# Biological target: hROMK (human Kir1.1) (Homo sapiens (Human), UniProt P48048)
# Assay: Thallium Flux Assay (FluxOR, CHO T-Rex hROMK stable cell line)
# Type: cell-based
# Settings: CHO T-Rex hROMK cells, 10-point concentration response curve; read-out: Human ROMK TH Flux IC50
# Chain of hROMK (human Kir1.1) (P48048 whole entry): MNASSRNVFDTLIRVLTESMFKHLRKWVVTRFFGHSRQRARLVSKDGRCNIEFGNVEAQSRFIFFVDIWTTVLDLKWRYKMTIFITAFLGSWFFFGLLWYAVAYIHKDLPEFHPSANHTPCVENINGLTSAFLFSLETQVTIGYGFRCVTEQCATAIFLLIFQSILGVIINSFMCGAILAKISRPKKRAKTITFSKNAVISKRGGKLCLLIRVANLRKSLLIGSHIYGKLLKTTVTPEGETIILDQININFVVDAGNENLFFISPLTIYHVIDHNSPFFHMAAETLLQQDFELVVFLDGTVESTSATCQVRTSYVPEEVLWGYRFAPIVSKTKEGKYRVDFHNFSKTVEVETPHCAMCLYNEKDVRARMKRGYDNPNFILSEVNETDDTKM
row,Structure (SMILES),IC50
1,"Cc1cc(-n2cc(CNC[C@@H](c3ccc4c(c3C)COC4=O)N(C)S(C)(=O)=O)cn2)ncc1C#N [Example 65, (R)-N-(2-(((1-(5-cyano-4-methylpyridin-2-yl)-1H-pyrazol-4-yl)methyl)amino)-1-(4-methyl-1-oxo-1,3-dihydroisobenzofuran-5-yl)ethyl)-N-methylmethanesulfonamide]",38 nM
2,"Cc1cc(-n2cc(CNC[C@@H](c3ccc4c(c3C)COC4=O)N3CCCS3(=O)=O)cn2)ncc1C#N [Example 66, (R)-6-(4-(((2-(1,1-dioxidoisothiazolidin-2-yl)-2-(4-methyl-1-oxo-1,3-dihydroisobenzofuran-5-yl)ethyl)amino)methyl)-1H-pyrazol-1-yl)-4-methylnicotinonitrile]",260 nM
3,"Cc1cn(-c2cc(C)c(CNC[C@H](O)c3ccc4c(c3C)COC4=O)cn2)cn1 [Example 76, (R)-5-(1-hydroxy-2-(((4-methyl-6-(4-methyl-1H-imidazol-1-yl)pyridin-3-yl)methyl)amino)ethyl)-4-methylisobenzofuran-1(3H)-one]",81 nM
4,Cc1cn(-c2ccc(CNC[C@H](O)c3ccc4c(c3C)COC4=O)c(C)n2)cn1 [Example 77],190 nM
5,"Cc1cc(C#N)cnc1-n1cc(CNC[C@H](O)c2ccc3c(c2C)COC3=O)cn1 [Example 78, (R)-6-(4-(((2-hydroxy-2-(4-methyl-1-oxo-1,3-dihydroisobenzofuran-5-yl)ethyl)amino)methyl)-1H-pyrazol-1-yl)-5-methylnicotinonitrile]",440 nM
6,"Cc1c([C@@H](O)CNCc2cnn(-c3ccc4nncn4n3)c2)ccc2c1COC2=O [Example 79, (R)-5-(2-(((1-([1,2,4]triazolo[4,3-b]pyridazin-6-yl)-1H-pyrazol-4-yl)methyl)amino)-1-hydroxyethyl)-4-methylisobenzofuran-1(3H)-one]",530 nM
7,"COc1cc(-n2cc(CNC[C@H](O)c3ccc4c(c3C)COC4=O)cn2)ccn1 [Example 80, (R)-5-(1-hydroxy-2-(((1-(2-methoxypyridin-4-yl)-1H-pyrazol-4-yl)methyl)amino)ethyl)-4-methylisobenzofuran-1(3H)-one]",530 nM
8,"Cc1cc(-n2cc(CN(CC3CCOC3)C[C@H](O)c3ccc4c(c3C)COC4=O)cn2)ncc1C#N (stereo partly drawn) [Example 85, 6-(4-((((R)-2-hydroxy-2-(4-methyl-1-oxo-1,3-dihydroisobenzofuran-5-yl)ethyl)((tetrahydrofuran-3-yl)methyl)amino)methyl)-1H-pyrazol-1-yl)-4-methylnicotinonitrile]",230 nM
9,"Cc1cc(-c2nc(CNC[C@H](O)c3ccc4c(c3C)COC4=O)cn2C)ncc1C#N [Example 86, (R)-6-(4-(((2-hydroxy-2-(4-methyl-1-oxo-1,3-dihydroisobenzofuran-5-yl)ethyl)amino)methyl)-1-methyl-1H-imidazol-2-yl)-4-methylnicotinonitrile]",430 nM
10,"COc1cc(-n2cnc(C)c2)ncc1CNC[C@H](O)c1ccc2c(c1C)COC2=O [Example 89, (R)-5-(1-hydroxy-2-(((4-methoxy-6-(4-methyl-1H-imidazol-1-yl)pyridin-3-yl)methyl)amino)ethyl)-4-methylisobenzofuran-1(3H)-one]",92 nM
11,"Cc1ncn(-c2ncc(CNC[C@H](O)c3ccc4c(c3C)COC4=O)cn2)c1C(F)F [Example 90, (R)-5-(2-(((2-(5-(difluoromethyl)-4-methyl-1H-imidazol-1-yl)pyrimidin-5-yl)methyl)amino)-1-hydroxyethyl)-4-methylisobenzofuran-1(3H)-one]",230 nM
12,"Cc1cc(-n2cc(CNC[C@H](O)c3ccc4c(c3C)COC4=O)ccc2=O)ncc1C#N [Example 99, (R)-5-(((2-hydroxy-2-(4-methyl-1-oxo-1,3-dihydroisobenzofuran-5-yl)ethyl)amino)methyl)-4′-methyl-2-oxo-2H-[1,2′-bipyridine]-5′-carbonitrile]",140 nM
13,"CCc1nn(-c2ccc(CNC[C@H](O)c3ccc4c(c3C)COC4=O)cn2)cc1C#N [Example 103, (R)-3-ethyl-1-(5-(((2-hydroxy-2-(4-methyl-1-oxo-1,3-dihydroisobenzofuran-5-yl)ethyl)amino)methyl)pyridin-2-yl)-1H-pyrazole-4-carbonitrile]",55.2 nM
14,"Cc1c([C@@H](O)CNCc2cnn(-c3cc(N4CCCC4)c(C#N)cn3)c2)ccc2c1COC2=O [Example 119, (R)-6-(4-(((2-hydroxy-2-(4-methyl-1-oxo-1,3-dihydroisobenzofuran-5-yl)ethyl)amino)methyl)-1H-pyrazol-1-yl)-4-(pyrrolidin-1-yl)nicotinonitrile]",91 nM
15,"Cc1c([C@@H](O)CNCc2cncc(-c3ccc4oc(=O)n(C)c4c3)c2)ccc2c1COC2=O [Example 120, (R)-5-(5-(((2-hydroxy-2-(4-methyl-1-oxo-1,3-dihydroisobenzofuran-5-yl)ethyl)amino)methyl)pyridin-3-yl)-3-methylbenzo[d]oxazol-2(3H)-one]",120 nM
16,"Cc1c([C@@H](O)CNCc2cnn(-c3ccc4oc(=O)[nH]c4c3)c2)ccc2c1COC2=O [Example 121, (R)-5-(4-(((2-hydroxy-2-(4-methyl-1-oxo-1,3-dihydroisobenzofuran-5-yl)ethyl)amino)methyl)-1H-pyrazol-1-yl)benzo[d]oxazol-2(3H)-one]",160 nM

row,Structure (SMILES),IC50
1,"Cc1c([C@@H](O)CNCc2ccc(-c3ccc(=O)n(C)n3)nc2)ccc2c1COC2=O [Example 122, (R)-6-(5-(((2-hydroxy-2-(4-methyl-1-oxo-1,3-dihydroisobenzofuran-5-yl)ethyl)amino)methyl)pyridin-2-yl)-2-methylpyridazin-3(2H)-one]",170 nM
2,"Cc1ncn(-c2ncc(CNC[C@H](O)c3ccc4c(c3C)COC4=O)cn2)n1 [Example 123, (R)-5-(1-hydroxy-2-(((2-(3-methyl-1H-1,2,4-ttiazol-1-yl)pyrimidin-5-yl)methyl)amino)ethyl)-4-methylisobenzofuran-1(3H)-one]",210 nM
3,"Cc1c([C@@H](O)CNCc2ccc(-c3cnn(C)c3)nc2)ccc2c1COC2=O [Example 124, (R)-5-(1-hydroxy-2-(((6-(1-methyl-1H-pyrazol-4-yl)pyridin-3-y)methyl)amino)ethyl)-4-methylisobenzofuran-1(3H)-one]",260 nM
4,"CCn1c(=O)oc2ccc(-n3cc(CNC[C@H](O)c4ccc5c(c4C)COC5=O)cn3)cc21 [Example 125, (R)-3-ethyl-5-(4-(((2-hydroxy-2-(4-methyl-1-oxo-1,3-dihydroisobenzofuran-5-yl)ethyl)amino)methyl)-1H-pyrazol-1-yl)benzo[d]oxazol-2(3H)-one]",390 nM
5,"Cc1c([C@@H](O)CNCc2c[nH]c(-c3ccc4oc(=O)n(C)c4c3)n2)ccc2c1COC2=O [Example 126, (R)-5-(4-(((2-hydroxy-2-(4-methyl-1-oxo-1,3-dihydroisobenzofuran-5-yl)ethyl)amino)methyl)-1H-imidazol-2-yl)-3-methylbenzo[d]oxazol-2(3H)-one]",580 nM
6,"Cc1nnn(-c2ccc(CNC[C@H](O)c3ccc4c(c3C)COC4=O)cn2)n1 [Example 127, (R)-5-(1-hydroxy-2-(((6-(5-methyl-2H-tetrazol-2-yl)pyridin-3-yl)methyl)amino)ethyl)-4-methylisobenzofuran-1(3H)-one]",420 nM
7,"COc1cc(-c2ncc(CNC[C@H](O)c3ccc4c(c3C)COC4=O)s2)ncc1C#N [Example 129, (R)-6-(5-(((2-hydroxy-2-(4-methyl-1-oxo-1,3-dihydroisobenzofuran-5-yl)ethyl)amino)methyl)thiazol-2-yl)-4-methoxynicotinonitrile]",8 nM
8,"Cc1cn(-c2cnc(CNC[C@H](O)c3ccc4c(c3C)COC4=O)cn2)cn1 [Example 141, (R)-5-(1-hydroxy-2-(((5-(4-methyl-1H-imidazol-1-yl)pyrazin-2-yl)methyl)amino)ethyl)-4-methylisobenzofuran-1(3H)-one]",290 nM
9,"Cc1c([C@@H](O)CNCc2cnn(-c3cc(N4CCOC4=O)ccn3)c2)ccc2c1COC2=O [Example 143, (R)-3-(2-(4-(((2-hydroxy-2-(4-methyl-1-oxo-1,3-dihydroisobenzofuran-5-yl)ethyl)amino)methyl)-1H-pyrazol-1-yl)pyridin-4-yl)oxazolidin-2-one]",1000 nM
10,"CNC(=O)O[C@@H](CNCc1cnn(-c2cc(C)c(C#N)cn2)c1)c1ccc2c(c1C)COC2=O [Example 144, (R)-2-(((1-(5-cyano-4-methylpyridin-2-yl)-1H-pyrazol-4-yl)methyl)amino)-1-(4-methyl-1-oxo-1,3-dihydroisobenzofuran-5-yl)ethyl methylcarbamate]",140 nM
11,"Cc1c([C@@H](O)CNCc2cnn(-c3ccc4oc(=O)n(C)c4n3)c2)ccc2c1COC2=O [Example 145, (R)-5-(4-(((2-hydroxy-2-(4-methyl-1-oxo-1,3-dihydroisobenzofuran-5-yl)ethyl)amino)methyl)-1H-pyrazol-1-yl)-3-methyloxazolo[4,5-b]pyridin-2(3H)-one]",130 nM
12,"Cc1cn(-c2ncc(CNC[C@H](O)c3ccc4c(c3C)COC4=O)cn2)c(C2CC2)n1 [Example 153, (R)-5-(2-(((2-(2-cyclopropyl-4-methyl-1H-imidazol-1-yl)pyrimidin-5-yl)methyl)amino)-1-hydroxyethyl)-4-methylisobenzofuran-1(3H)-one]",520 nM
13,"Cc1c([C@@H](O)CNCc2ccc(-n3cc(C(N)=O)cn3)nc2)ccc2c1COC2=O [Example 154, (R)-1-(5-(((2-hydroxy-2-(4-methyl-1-oxo-1,3-dihydroisobenzofuran-5-yl)ethyl)amino)methyl)pyridin-2-yl)-1H-pyrazole-4-carboxamide]",1000 nM
14,"Cc1c([C@@H](O)CNCc2cnn(-c3cc(OC(C)C)c(C#N)cn3)c2)ccc2c1COC2=O [Example 157, (R)-6-(4-(((2-hydroxy-2-(4-methyl-1-oxo-1,3-dihydroisobenzofuran-5-yl)ethyl)amino)methyl)-1H-pyrazol-1-yl)-4-isopropoxynicotinonitrile]",31 nM
15,"Cc1c([C@@H](O)CNCc2cnn(-c3cccc(N4CCOC4=O)c3)c2)ccc2c1COC2=O [Example 158, (R)-3-(3-(4-(((2-hydroxy-2-(4-methyl-1-oxo-1,3-dihydroisobenzofuran-5-yl)ethyl)amino)methyl)-1H-pyrazol-1-yl)phenyl)oxazolidin-2-one]",390 nM
